{"source": "patent US10239880B2", "about": "“Cyclopenta[d]pyrimidines and substituted cyclopenta[d]pyrimidines as antitubulin and microtubule targeting agents, monocyclic pyrimidines as tubulin inhibitors, and pyrrolopyrimidines as targeted antifolates and tubulin and multiple receptor tyrosine kinase inhibition and antitumor agents” (Duquesne University of the Holy Spirit, priority 2015, dated 2019)", "key": {"PDGFR-β": {"target": "PDGFR-β (Homo sapiens, UniProt P09619)", "sequence (P09619 33-1106, species assumed)": "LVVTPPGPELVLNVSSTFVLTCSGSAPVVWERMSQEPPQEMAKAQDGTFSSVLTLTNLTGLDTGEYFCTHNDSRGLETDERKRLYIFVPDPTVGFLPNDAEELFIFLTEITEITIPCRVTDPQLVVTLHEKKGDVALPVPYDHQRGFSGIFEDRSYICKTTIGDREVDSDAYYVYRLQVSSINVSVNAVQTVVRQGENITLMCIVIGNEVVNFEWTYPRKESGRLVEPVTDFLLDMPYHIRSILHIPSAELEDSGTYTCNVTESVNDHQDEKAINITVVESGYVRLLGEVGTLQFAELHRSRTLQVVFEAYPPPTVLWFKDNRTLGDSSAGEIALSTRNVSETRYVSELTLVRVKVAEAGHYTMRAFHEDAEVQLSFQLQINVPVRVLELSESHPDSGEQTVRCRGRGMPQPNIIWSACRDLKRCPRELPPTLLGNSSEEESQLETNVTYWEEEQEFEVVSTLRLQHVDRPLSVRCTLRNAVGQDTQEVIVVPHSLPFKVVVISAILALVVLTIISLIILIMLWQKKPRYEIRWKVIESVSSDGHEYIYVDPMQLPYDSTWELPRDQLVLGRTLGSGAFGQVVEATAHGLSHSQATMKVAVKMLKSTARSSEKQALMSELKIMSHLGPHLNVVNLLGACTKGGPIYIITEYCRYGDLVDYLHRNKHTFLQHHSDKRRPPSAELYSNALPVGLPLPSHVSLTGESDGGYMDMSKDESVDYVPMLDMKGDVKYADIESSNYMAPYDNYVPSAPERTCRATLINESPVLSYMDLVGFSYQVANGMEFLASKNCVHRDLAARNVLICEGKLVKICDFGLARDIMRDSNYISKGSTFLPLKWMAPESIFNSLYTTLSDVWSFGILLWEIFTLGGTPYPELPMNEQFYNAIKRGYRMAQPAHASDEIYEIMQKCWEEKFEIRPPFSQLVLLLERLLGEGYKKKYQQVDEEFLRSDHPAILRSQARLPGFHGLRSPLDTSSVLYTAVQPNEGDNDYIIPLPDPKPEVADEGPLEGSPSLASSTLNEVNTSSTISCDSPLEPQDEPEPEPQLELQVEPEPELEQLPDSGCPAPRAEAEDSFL", "assay": "Kinase inhibition, whole-cell assay, PDGFR-β", "assay_type": "cell-based", "conditions": "Table 1; IC50 ± SD; read-out: Kinase inhibition IC50 [whole-cell assays] PDGFR-β"}, "MDA-MB-435 xenograft": {"test_system": "MDA-MB-435 xenograft", "assay": "MDA-MB-435 xenograft trial", "conditions": "for adverse effects / toxicity in xenograft trial: cumulative dosing; for antitumor effects: MDA-MB-435 xenograft"}, "MDA-MB-435 cancer cells": {"test_system": "MDA-MB-435 cancer cells", "assay": "Antiproliferative effect in MDA-MB-435 cancer cells (SRB assay)", "assay_type": "cell-based", "conditions": "Table 2, read-out: MDA-MB-435 IC50"}, "A-10 cells": {"test_system": "A-10 cells", "assay": "Microtubule depolymerization, cell-based phenotypic assay in A-10 cells"}, "EGFR": {"target": "EGFR (Homo sapiens, UniProt P00533)", "sequence (P00533 25-1210, species assumed)": "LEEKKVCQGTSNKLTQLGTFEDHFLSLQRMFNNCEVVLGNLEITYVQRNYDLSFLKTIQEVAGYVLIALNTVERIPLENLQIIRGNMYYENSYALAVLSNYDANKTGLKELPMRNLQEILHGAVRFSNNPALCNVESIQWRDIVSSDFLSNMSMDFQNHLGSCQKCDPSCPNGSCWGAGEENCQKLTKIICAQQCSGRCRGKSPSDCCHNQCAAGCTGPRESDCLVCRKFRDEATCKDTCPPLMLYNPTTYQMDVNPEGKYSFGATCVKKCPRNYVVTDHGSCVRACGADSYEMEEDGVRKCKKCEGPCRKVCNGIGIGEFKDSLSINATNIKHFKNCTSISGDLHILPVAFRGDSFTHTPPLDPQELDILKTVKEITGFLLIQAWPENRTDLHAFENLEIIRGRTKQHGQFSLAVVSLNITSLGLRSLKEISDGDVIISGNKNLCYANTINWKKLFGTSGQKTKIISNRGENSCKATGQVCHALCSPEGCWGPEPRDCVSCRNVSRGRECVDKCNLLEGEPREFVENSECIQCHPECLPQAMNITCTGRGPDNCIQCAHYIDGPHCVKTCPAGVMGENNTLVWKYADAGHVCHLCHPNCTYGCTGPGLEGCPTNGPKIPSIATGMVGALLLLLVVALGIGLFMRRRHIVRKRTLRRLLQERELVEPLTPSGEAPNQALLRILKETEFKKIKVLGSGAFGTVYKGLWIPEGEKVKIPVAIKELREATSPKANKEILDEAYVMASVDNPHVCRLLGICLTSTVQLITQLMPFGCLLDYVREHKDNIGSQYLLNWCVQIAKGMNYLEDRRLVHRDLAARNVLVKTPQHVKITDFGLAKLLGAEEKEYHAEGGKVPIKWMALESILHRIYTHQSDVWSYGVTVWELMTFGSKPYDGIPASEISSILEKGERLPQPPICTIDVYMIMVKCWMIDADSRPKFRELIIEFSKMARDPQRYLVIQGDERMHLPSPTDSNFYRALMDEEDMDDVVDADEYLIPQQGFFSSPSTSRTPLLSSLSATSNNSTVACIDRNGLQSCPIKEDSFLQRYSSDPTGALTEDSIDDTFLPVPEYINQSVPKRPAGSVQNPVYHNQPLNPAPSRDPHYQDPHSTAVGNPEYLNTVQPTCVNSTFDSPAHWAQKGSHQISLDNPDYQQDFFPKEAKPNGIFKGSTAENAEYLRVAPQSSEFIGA", "assay": "Kinase inhibition, whole-cell assay, EGFR", "assay_type": "cell-based", "conditions": "Table 1; IC50 ± SD; read-out: Kinase inhibition IC50 [whole-cell assays] EGFR"}, "MDA-MB-231 xenograft": {"test_system": "MDA-MB-231 xenograft", "assay": "MDA-MB-231 xenograft trial"}, "[1]": {"test_system": "NCI/ADR resistant tumor model", "assay": "NCI/ADR-RES xenograft trial (resistant tumor model)", "assay_type": "in vivo, mice", "conditions": "day 11, AG165 75 mg/kg", "text": "AG165 in MDA-MB-435 xenograph model:"}, "Parental OVCAR-8": {"test_system": "Parental OVCAR-8", "assay": "Antiproliferative effect, parental OVCAR-8 (SRB assay)", "assay_type": "cell-based", "conditions": "Homo sapiens, Table 10, n = 3, read-out: IC50 ± SD Parental OVCAR-8"}, "[2]": {"test_system": "tubulin (colchicine site)", "assay": "Inhibition of [3H]colchicine binding to tubulin (Section III)", "conditions": "5 μM; Section III compounds"}, "purified tubulin": {"test_system": "purified tubulin", "assay": "Inhibition of tubulin assembly (Section II)", "assay_type": "biochemical", "conditions": "Table 5; Section II compounds; read-out: Inhibition of tubulin assembly IC50 ± SD", "method": "The effects of 3, 4, 6, 7 and 9 on the polymerization of purified tubulin were evaluated (Table 5). This allows a study of the direct interaction of these compounds with their intracellular target. The ability of these compounds to bind to the colchicine site on tubulin was evaluated by measuring inhibition of [^3H]colchicine binding to tubulin."}, "Parental HeLa": {"test_system": "Parental HeLa", "assay": "Antiproliferative activity, parental HeLa", "assay_type": "cell-based", "conditions": "Homo sapiens, Table 7, read-out: IC50 ± SD Parental HeLa", "text": "(§1) Another clinically relevant drug resistance mechanism of tubulin-targeting agents is the overexpression of the βIII isotype of tubulin."}, "Parental SK-OV-3": {"test_system": "Parental SK-OV-3", "assay": "Antiproliferative activity, parental SK-OV-3", "assay_type": "cell-based", "conditions": "Homo sapiens, Table 6, read-out: IC50 ± SD Parental SK-OV-3"}, "[3]": {"test_system": "Pgp expressing SK-OV-3 MDR1-6-6", "assay": "Antiproliferative activity, Pgp expressing SK-OV-3 MDR1-6-6", "assay_type": "cell-based", "conditions": "Homo sapiens"}, "[4]": {"test_system": "P-gp Overexpressing NCI/ADR-RES", "assay": "Antiproliferative effect, P-gp overexpressing NCI/ADR-RES (SRB assay)", "conditions": "Homo sapiens, read-out: IC50 ± SD P-gp Overexpressing NCI/ADR-RES"}, "[5]": {"test_system": "β-III overexpressing HeLa", "assay": "Antiproliferative activity, β-III overexpressing HeLa", "assay_type": "cell-based", "conditions": "Homo sapiens, HeLa; Table 7; read-out: IC50 ± SD β-III overexpressing HeLa", "text": "as §1"}, "[6]": {"assay": "Metabolite identification of 3 with human liver microsomes by LC/MS/MS", "assay_type": "in vitro ADME", "text": "Compound 3 (Table 4), the para-methylthiophenyl substituted cyclopenta[d]pyrimidne, was designed to decrease the possible demethylation. […] Thus, the methylsulfinyl analog 4 (Table 4) and the methylsulfonyl analog 5 (Table 4) were also synthesized to determine their antiproliferative potencies. […] The electron donating, para-methylamino moiety of 8 (Table 1) and the para-dimethylamino moiety of 9 (Table 4) were designed as isosteric replacements of the O-methoxy moiety. According to the literature,^7 8 should be the major metabolite of 9. […] Compound 13 (Table 4), replaced the phenyl ring with a cyclohexyl ring to determine the importance of π-stacking interaction of the aniline ring. The variations proposed of compounds 10-13 would also serve as structural means to decrease the O-demethylation. […] Similarly, 9 could also function as a potential long acting agent, since the metabolites of both 3 and 9 are anticipated to be potent compounds against tumor cells. Section II Compounds Chemistry:\nFIG. 7a) HPLC spectra of 3 incubated with human liver microsomes at 0 and 60 min. Metabolites M1-M5 and parent 3 were illustrated on the spectra. FIG. 7b) MS and MS/MS spectrum of 3. FIG. 7c) MS and MS/MS spectrum of M1 (compound 5). FIG. 7d) MS and MS/MS spectrum of M2 (compound 4). FIG. 7e) Fragmentation of M1 and M2 (MS/MS 239.1340)."}, "[7]": {"conditions": "IP 75 mg/kg, listed as AG 165, 75 mg/kg"}}, "note": "“Also recorded” adds a separate entry of the source. Like-named read-outs stand apart in the source and are kept apart here."}
{"smiles": "CCCn1ccc2nc(C)nc(N(C)c3ccc(OC)cc3)c21.Cl", "note": "[3•HCl]", "values": [{"measurement": "IC50", "setting": "PDGFR-β", "value": "> 200", "unit": "nM"}, {"measurement": "final average tumor mass compared to the vehicle", "setting": "MDA-MB-435 xenograft; Day 15, IP 75 mg/kg", "value": "statistically significant (p<0.001) lower final average tumor mass"}, {"measurement": "mouse weight change", "setting": "MDA-MB-435 xenograft; IP 75 mg/kg, compared to the vehicle", "value": "recoverable weight loss"}, {"measurement": "adverse effects / toxicity in xenograft trial", "setting": "MDA-MB-435 xenograft; IP 75 mg/kg, 75 mg/kg", "value": "did not induce any noticeable adverse effects or toxicities; also recorded: no apparent toxicity"}, {"measurement": "adverse effects / toxicity in xenograft trial", "setting": "MDA-MB-435 xenograft; [7]", "value": "no evidence of effects on either central or peripheral nervous system"}, {"measurement": "tumor growth during the trial", "setting": "MDA-MB-435 xenograft; IP 75 mg/kg, nude mice", "value": "inhibited tumor growth"}, {"measurement": "antitumor effects", "setting": "MDA-MB-435 xenograft; IP 75 mg/kg, 75 mg/kg", "value": "statistically significant antitumor effects (p<0.001)"}, {"measurement": "antitumor effects", "setting": "MDA-MB-435 xenograft; [7]", "value": "highly statistically significant (p<0.001) antitumor effects"}, {"measurement": "tumors vs control", "setting": "MDA-MB-435 xenograft; days 9, 11 and 15, 75 mg/kg, p<0.01 days 9 and 11, p<0.0001 day 15", "value": "significantly smaller"}, {"measurement": "IC50", "setting": "MDA-MB-435 cancer cells", "value": "8.8 ± 3.4", "unit": "nM"}, {"measurement": "EC50", "setting": "A-10 cells; Table 2, read-out: Microtubule depolymerization EC50", "value": 20, "unit": "nM"}, {"measurement": "IC50", "setting": "A431", "value": "107 ± 18", "unit": "nM"}, {"measurement": "IC50", "setting": "EGFR", "value": "89.3 ± 9.2", "unit": "nM"}, {"measurement": "antitumor effects", "setting": "MDA-MB-231 xenograft; MDA-MB-231 xenograft, 3.HCl 75 mg/kg IP, paclitaxel 10 mg/kg IP", "value": "statistically significant antitumor effects comparable to paclitaxel"}, {"measurement": "tumors vs control", "setting": "MDA-MB-231 xenograft; days 10 and 15, 75 mg/kg, p<0.01 and p<0.0001", "value": "significantly smaller"}, {"measurement": "tumor volume vs control treated mice", "setting": "[1]; p=0.0003", "value": "significantly smaller"}, {"measurement": "tumor volume vs PTX (10 mg/kg) treated mice", "setting": "[1]; p=0.0333", "value": "significantly smaller"}]}
{"smiles": "COc1ccc(/C=C\\c2cc(OC)c(OC)c(OC)c2)cc1O", "note": "[CA-4, combretastatin A-4]", "values": [{"measurement": "IC50", "setting": "Parental OVCAR-8", "value": "6 ± 0.7", "unit": "nM"}, {"measurement": "Inhibition of colchicine binding (% inhibition ± SD)", "setting": "[2]", "value": 97, "unit": "%"}, {"measurement": "IC50", "setting": "purified tubulin", "value": "[…]"}, {"measurement": "IC50", "setting": "Parental HeLa", "value": "4.7 ± 0.2", "unit": "nM"}, {"measurement": "IC50", "setting": "MDA-MB-435 cancer cells; Homo sapiens, MDA-MB-435", "value": "3.47 ± 0.6", "unit": "nM"}, {"measurement": "EC50", "setting": "A-10 cells; Rattus norvegicus, A10, Table 2, read-out: Microtubule depolymerization EC50", "value": 13.1, "unit": "nM"}, {"measurement": "IC50", "setting": "Parental SK-OV-3", "value": "[…]"}, {"measurement": "IC50", "setting": "[3]; SK-OV-3, read-out: IC50 ± SD Pgp expressing SK-OV-3 MDR1-6-6", "value": "6.6 ± 1.3", "unit": "nM"}, {"measurement": "IC50", "setting": "[4]", "value": "9 ± 2", "unit": "nM"}]}
{"smiles": "CSc1ccc(N(C)c2nc(C)nc3c2CCC3)cc1", "note": "[Compound 3]", "values": [{"measurement": "IC50", "setting": "[5]", "value": "5.26 ± 0.78", "unit": "nM"}, {"measurement": "IC50", "setting": "Parental OVCAR-8", "value": "500 ± 100", "unit": "nM"}, {"measurement": "IC50", "setting": "Parental HeLa", "value": "6.95 ± 0.53", "unit": "nM"}, {"measurement": "EC50", "setting": "A-10 cells; Rattus norvegicus, A10, read-out: EC50 in A-10 cells (Concentration that causes 50% tubulin loss in A-10 cells), Table 4, Section II compounds", "value": 12.6, "unit": "nM"}, {"measurement": "IC50", "setting": "Parental SK-OV-3", "value": "7.2 ± 0.6", "unit": "nM"}, {"measurement": "IC50", "setting": "[3]; SK-OV-3, Table 6, read-out: IC50 ± SD Pgp expressing SK-OV-3 MDR1-6-6", "value": "9.28 ± 0.42", "unit": "nM"}, {"measurement": "IC50", "setting": "[4]", "value": "210 ± 10", "unit": "nM"}]}
{"smiles": "Cc1nc2c(c(N(C)c3ccc([S+](C)[O-])cc3)n1)CCC2", "note": "(centres unmarked) [Section II compound 4]", "values": [{"measurement": "MS Peak Area in 60 min sample, HPLC area", "setting": "[6]", "value": "2,199,500"}]}
{"smiles": "Cc1nc2c(c(N(C)c3ccc(S(C)(=O)=O)cc3)n1)CCC2", "note": "[Section II compound 5]", "values": [{"measurement": "MS Peak Area in 60 min sample, HPLC area", "setting": "[6]; Section II compound 3 incubated with human liver microsomes, 60 min", "value": "98,900"}, {"measurement": "MS Peak Area in 60 min sample, Percentage (%)", "setting": "[6]; Section II compound 3 incubated with human liver microsomes, 60 min, parent and metabolites", "value": 2.2, "unit": "%"}]}
{"smiles": "CC(=O)O[C@H]1C(=O)[C@@]2(C)[C@H]([C@H](OC(=O)c3ccccc3)[C@]3(O)C[C@H](OC(=O)[C@H](O)[C@@H](NC(=O)c4ccccc4)c4ccccc4)C(C)=C1C3(C)C)[C@]1(OC(C)=O)CO[C@@H]1C[C@@H]2O", "note": "[paclitaxel]", "values": [{"measurement": "IC50", "setting": "Parental OVCAR-8", "value": 10, "unit": "nM"}, {"measurement": "IC50", "setting": "[4]", "value": 5000, "unit": "nM"}]}
